# “And” between values parts separate entries of the source, which are not always exact repeats. Identical values can stand only once. “Also recorded” adds a separate entry of the source.
# Key:
# CMK cells [1] = assay: Apoptosis-regulating effect: DNA fragmentation in CMK cells (agarose gel electrophoresis); type: cell-based, human; details: 30 μg/ml; 2 or 4 days
# Method: CMK cells were used to prepare a suspension of 1×10^5 cells/ml in RPMI-1640 medium supplemented with fetal calf serum and Compound 1 was added at a concentration of 30 μg/ml. The mixture was incubated in a culture flask at 37° C. for 2 or 4 days. As a control, the medium to which the solvent alone was added was similarly incubated.
# Cells were harvested by centrifugation at 4° C. for 10 minutes at 200×G. The pellet was dissolved in a hypotonic buffer (10 mM Tris-HCl, 1 mM EDTA and 0.2% Triton 100, pH 7.5) and the solution was centrifuged at 4° C. for 10 minutes at 13000×G. The supernatant was collected and allowed to stand in 50% isopropyl alcohol -0.5M NaCl at -20° C. overnight. The resultant precipitate was centrifuged at 4° C. for 10 minutes at 13000×G, the supernatant was discarded, and the sediment was dried. The dry sediment was resuspended in 10 mMTris-HCl-1 mM EDTA (pH 7.4). To the supernatant was added RNase at a final concentration of 0.1 mg/ml and the mixture was incubated at 37° C. for 1 hour.
# To a sample corresponding to the cell count of 1×10^6 was added 1/5 volume of a loading buffer containing 15 mM EDTA, 2% SDS, 50% glycerol and 0.05% bromphenol blue, and the mixture was incubated at 65° C. for 10 minutes.
# The culture sample thus obtained was subjected to electrophoresis in 1.5% agarose gel at 100 V for 100 minutes. The DNA was stained with ethidium bromide. […]
# [2] = tested on: human adult T cell leukemic cells (5S); assay: ATL-infected cell growth inhibition test: ATLV-infected cells; type: cell-based; details: for Number of ATLV-infected cells: 4 days, control 6.5
# Method: Human adult T cell leukemia cells (5S) were used to prepare a suspension of 1×10^5 cells/ml in RPMI-1640 medium (Gibco) supplemented 10% fetal calf serum (FCS, Gibco) for use as ATL virus-infected cells.
# Compound 1 was dissolved in hydrochloric acid, diluted with the same medium as above, neutralized with 2N NaOH and adjusted to concentrations of 1 μg/ml, 10 μg/ml and 30 μg/ml.
# The cells prepared in (a) and (b) above were respectively placed in wells of a 24-well culture plate (Nunc), followed by addition of the test compound prepared in (c) (final concentration: 1 μg/ml, 10 μg/ml or 30 μg/ml), and cultured at 37° C. in a 5% carbon dioxide incubator for 4 days. As a control, the medium without addition of the test compound was used. After completion of incubation, the cell suspension in each well was taken for determination of viable cells.
# [3] = tested on: W/BF1 :(NZW×BXSB)F1 mice with spontaneous autoimmune disease; assay: Life-prolonging effect in autoimmune disease mice; type: in vivo
# From the text: W/BF1 :(NZW×BXSB)F1 mice are mice with spontaneous autoimmune disease. They are known as an animal model of lupus nephritis accompanied, with high frequency, by hypertension and myocardial infarction [Hang, L. M., et al., J. Exp. Med., 154, 216-221 (1981)]. They develop anti-platelet antibodies with increasing age, showing marked thrombocytopenia, and are used as an animal model of idiopathic thrombocytopenic purpura (ITP) as well [Oyaizu, N., et al., J. Exp. Med. 167, 2017-2077 (1988)]. It has been reported that more than 90% of the model animals die of myocardial infarction or renal failure within 8 months of birth [Ikehara, S., Metabolism and Disease, (Suppl) 26, 169-176 (1989)].
# (§1) W/BF1 :(NZW×BXSB)F1 mice were used at the age of 14 weeks (purchased from Kiwa Experimental Animal). Groups of 10 mice were used in each experiment.
# The mice in respective groups were given a diet (Oriental Yeast), which is usually given to this kind of mice, and water.
# (§2) Compound 1 (Lot No. 9D87M) was used as suspended in a 0.5% solution of carborymethylcellulose (CMC, Cellogan). Compound 1 was administered to mice by oral garage in doses of 100 and 300 mg/kg body weight/day for 6 weeks from 14 weeks of age to 20 weeks of age according to the 5-day administration and 2-day cessation schedule. As a control, an untreated group was provided. […] Statistic analysis was performed by the generalized Wilcoxon test with respect to the untreated group.
# In the figure, the ordinate represents the survival rate (%) and the abscissa represents the age in weeks (14 weeks to 20 weeks).
# anti-platelet antibodies = assay: Assay of anti-platelet antibodies in autoimmune disease mice; type: in vivo, W/BF1 mice; details: for Anti-platelet antibodies, % positive, Mean ± SE / Anti-platelet antibodies, % positive, individual mice: 20 weeks of age; for Anti-platelet antibodies, % positive, Mean ± SE: untreated 19.6 ± 5.5
# Method: as §1, §2
# (3) Oyaizu et al. have reported that in W/BF1 mice, thrombocytopenia is associated with the appearance of anti-platelet antibodies.
# The platelets collected from Balb/c mice and the plasma collected from W/BF1 mice treated up to the age of 20 weeks were incubated together at room temperature for 30 minutes. The mixture was washed twice and allowed to react with FITC-labeled anti-mouse IgG (Tago, Code No. 6250), and after staining, anti-platelet antibodies were assayed with an FACS analyzer (EPICS-Profile II, Coulter). The negative control was set so that the plasma from Balb/c mice was 98% negative. The positive rate of each sample was determined.
# CMK cells [4] = assay: Morphological observation of CMK cells; type: cell-based, human; details: 30 μg/ml; 4 days
# Method: CMK cells, 1×10^5 cells/ml, were incubated in 10% FCS-added RPMI-1640 medium containing Compound 1 for 4 days and observed for the morphology of cells under the phase contrast microscope. A portion of the cell population was taken and a cytospin preparation was prepared and stained with Wright-Giemsa stain for determination of the cell morphology.
# Thus, FIGS. 4 and 6 are the phase constrast micrograph and stained map, respectively, of the medium control, and FIGS. 5 and 7 represent the corresponding figures for cells treated with 30 μg/ml of Compound 1.
# PC12 cells = assay: Effect on PC12 cells (morphology, phase contrast microscope)
# Method: PC12 cells subcultured in Dulbecco's modified Eagle's medium (D-MEM) supplemented with 5% heat-inactivated (56° C., 30 minutes) horse serum and 10% fetal calf serum (FCS) were transferred onto collagen-coatedplastic Petri dishes (35 mm in diameter) at a concentration of 6×10^4 cells/3 ml medium.
smiles,measurement,setting,value
"COc1ccc(C(=O)N2CCN(c3ccc4c(c3)CCC(=O)N4)CC2)cc1OC [Compound 1, 6-[4-(3,4-Dimethoxybenzoyl)-1-piperazinyl]-3,4-dihydrocarbostyril]",Apoptosis (DNA fragmentation),CMK cells [1],promotes apoptosis of CMK cells
same,Number of ATLV-infected cells,[2]; 1 μg/ml,0.6 ×10^5
same,Number of ATLV-infected cells,[2]; 10 μg/ml,0.2 ×10^5
same,Number of ATLV-infected cells,[2]; 30 μg/ml,3.3 ×10^5
same,Growth inhibition of ATLV-infected cells (in words),[2]; at least 1 μg/ml,potent inhibitory effect on the growth of ATLV-infected cells
same,Deaths till 20 weeks of age,"[3]; 100 mg/kg/day oral, untreated: two, one and three dead at 17, 18, 19 weeks",no death occurred
same,Animals found dead at 18 weeks of age,"[3]; 300 mg/kg/day oral, groups of 10",two
same,Life-prolonging effect (in words),[3]; 100 and 300 mg/kg/day oral,significant life-prolonging effect
same,"Anti-platelet antibodies, % positive, Mean ± SE",anti-platelet antibodies; 100 mg/kg/day,13.3 ± 2.7% and 13.2±2.7%
same,"Anti-platelet antibodies, % positive, individual mice","anti-platelet antibodies; 100 mg/kg, mouse Nos. 1-10",3.7% and 13.5% and 3.1% and 17.3% and 21.5% and 16.8% and 18.2% and 7.8% and 8.5% and 27.1%
same,"Anti-platelet antibodies, % positive, Mean ± SE",anti-platelet antibodies; 300 mg/kg/day,10.7 ± 2.2%
same,"Anti-platelet antibodies, % positive, individual mice","anti-platelet antibodies; 300 mg/kg, mouse Nos. 1-4, 6-9",2.3% and 11.4% and 14.1% and 6.0% and 16.4% and 12.1% and 4.1% and 19.5%
same,Inhibition of anti-platelet antibodies (in words),anti-platelet antibodies; 100 and 300 mg/kg/day,dose-dependent inhibition of anti-platelet antibodies
same,"Morphology, Wright-Giemsa stained map",CMK cells [4],budding of the cell membrane and lobulation of the nuclei
same,"Morphology, phase contrast micrograph",CMK cells [4],fragmentation of cells like in the process of platelet production
same,Cells with morphological changes induced,"PC12 cells; 30 μg/ml, day 3",30-50 % of the total cell population
same,Formation of nerve fiber-like processes,"PC12 cells; 30 μg/ml, most prominent with FCS 0.3%, day 3",formation of nerve fiber-like processes; also recorded: formation of nerve-like processes is observed
same,"Elongation of the process, combination of Compound 1 and NGF","PC12 cells; with NGF, 0.3% FCS, vs Compound 1 or NGF alone",promotes elongation of the process as compared with Compound 1 or NGF alone
